Numbered stars: 1 amine (or outer) side, 2 acyl side, 3 side chain; on linkers, the order of the positions; unused ones are H or OH. Bridge positions count the residues as written; N and C are the ends. Square brackets hold non-standard residues; d marks the D form. Side chains are listed from the residue outwards. Peptide text beside a SMILES is read from it. * marks the point of attachment. C18 diacid = O=C(O)CCCCCCCCCCCCCCCCC(=O)*; γGlu = O=C(O)[C@H](CCC(=O)[*:2])N[*:1]; Aib = CC(C)(N)C(=O)O

A word on the EC50: it is the concentration giving half of the maximal effect.

Assay [1] concerns the target T1, human amylin receptor (calcitonin receptor co-expressed with receptor activity modifying protein, RAMP3) (hAMYR3) (Homo sapiens, UniProt O60896+P30988).
T1 construct: expressed in transfected cells
T1 sequence (P30988 25-474): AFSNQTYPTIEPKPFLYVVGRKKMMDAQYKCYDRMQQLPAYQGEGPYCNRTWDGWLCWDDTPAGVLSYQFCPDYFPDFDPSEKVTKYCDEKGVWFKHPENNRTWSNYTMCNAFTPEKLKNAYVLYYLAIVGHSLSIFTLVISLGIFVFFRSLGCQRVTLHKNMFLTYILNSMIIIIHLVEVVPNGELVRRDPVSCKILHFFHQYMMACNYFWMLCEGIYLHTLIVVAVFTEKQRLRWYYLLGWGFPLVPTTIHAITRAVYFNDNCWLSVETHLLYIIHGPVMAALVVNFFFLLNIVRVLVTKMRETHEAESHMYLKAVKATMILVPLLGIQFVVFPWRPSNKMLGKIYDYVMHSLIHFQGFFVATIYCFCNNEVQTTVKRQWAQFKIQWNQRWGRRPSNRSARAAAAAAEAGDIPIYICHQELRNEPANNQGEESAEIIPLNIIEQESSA
T1 sequence (O60896 24-148 partner): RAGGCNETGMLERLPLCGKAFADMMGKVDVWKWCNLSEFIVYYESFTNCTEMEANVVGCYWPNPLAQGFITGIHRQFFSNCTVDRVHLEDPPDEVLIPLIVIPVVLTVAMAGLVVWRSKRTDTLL
Briefly: cAMP production in 1321N1 cells with stable recombinant expression of human amylin receptor (hAMYR3). It is filed as cell-based. The settings on record: for Ratio (selectivity hAMYR vs hCTR, ratio of EC50 values at the two receptors): EC50 hCTR / EC50 hAMYR3; for EC50: cAMP, 1321N1 cells, assay buffer with 0.1% BSA, read-out: EC50 (pM) hAMYR3. Summed up:
(§1)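 EC50 values come from 4-parameter logistic fits of HTRF cAMP signal, normalised to maximal calcitonin or amylin effect. Peptides were tested in duplicate for 30 min at RT in IBMX-containing (0.5 mM) BSA/HEPES buffer pH 7.4 on stable 1321N1 (human CTR, AMYR3) or HEK (rat CTR, AMYR3) lines.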
In general terms: Changes in cAMP serve as a functional read-out for many G protein-coupled receptors.

Assay [2] deals with T2, human calcitonin receptor (hCTR) (Homo sapiens, UniProt P30988).
T2 construct: expressed in transfected cells
T2 sequence (P30988 25-474): T1 sequence (P30988 25-474)
Nature of the assay: cAMP production in 1321N1 cells with stable recombinant expression of human calcitonin receptor (hCTR). The assay is classed as cell-based. The following applies: cAMP, 1321N1 cells, assay buffer with 0.1% BSA; read-out: EC50 (pM) hCTR. An outline of the steps:
as §1

For `CC[C@H](C)[C@H](NC(=O)[C@@H]1CCCN1C(=O)CNC(=O)[C@H](Cc1ccccc1)NC(=O)[C@H](CC(N)=O)NC(=O)C(C)(C)NC(=O)[C@H](CO)NC(=O)[C@H](CO)NC(=O)[C@H](Cc1c[nH]cn1)NC(=O)[C@@H](NC(=O)[C@H](CC(C)C)NC(=O)[C@H](Cc1ccccc1)NC(=O)[C@H](CC(N)=O)NC(=O)[C@H](C)NC(=O)[C@H](CC(C)C)NC(=O)[C@H](CCCNC(=N)N)NC(=O)[C@H](CCC(N)=O)NC(=O)[C@@H](NC(=O)[C@H](C)NC(=O)[C@@H]1CSSC[C@H](NC(=O)[C@H](CCCCN)NC(=O)[C@@H](N)CCCCNC(=O)CC[C@H](NC(=O)CCCCCCCCCCCCCCCCC(=O)O)C(=O)O)C(=O)N[C@@H](CC(N)=O)C(=O)N[C@@H]([C@@H](C)O)C(=O)N[C@@H](C)C(=O)N[C@@H]([C@@H](C)O)C(=O)N1)[C@@H](C)O)C(C)C)C(=O)N[C@@H](CC(C)C)C(=O)N1CCC[C@H]1C(=O)N1CCC[C@H]1C(=O)N[C@H](C(=O)N[C@@H](CC(N)=O)C(=O)N[C@H](C(=O)NC(C)(C)C(=O)N[C@@H](CO)C(=O)N[C@@H](CC(N)=O)C(=O)N[C@H](C(=O)N[C@@H](Cc1ccc(O)cc1)C(N)=O)[C@@H](C)O)C(C)C)[C@@H](C)O` [Peptide 81, K(γE-C18diacid)K[CNTATC]ATQRLANFLVHSS(Aib)NFGPILPPTNV(Aib)SNTY-amide] (H-K([γGlu-C18 diacid])KCNTATCATQRLANFLVHSS[Aib]NFGPILPPTNV[Aib]SNTY-NH2; disulfide 3-8; N-terminus assumed), the “Ratio (selectivity hAMYR vs hCTR, ratio of EC50 values at the two receptors)” value in assay [1] was determined as 7. Further, the EC50 in assay [1] worked out at 404 pM; in assay [2], 2760 pM.
`CC[C@H](C)[C@H](NC(=O)[C@@H]1CCCN1C(=O)CNC(=O)[C@H](Cc1ccccc1)NC(=O)[C@H](CC(N)=O)NC(=O)C(C)(C)NC(=O)[C@H](CO)NC(=O)[C@H](CO)NC(=O)[C@H](Cc1c[nH]cn1)NC(=O)[C@@H](NC(=O)[C@H](CC(C)C)NC(=O)[C@H](Cc1ccccc1)NC(=O)[C@H](CC(N)=O)NC(=O)[C@H](C)NC(=O)[C@H](CC(C)C)NC(=O)[C@H](CCCNC(=N)N)NC(=O)[C@H](CCC(N)=O)NC(=O)[C@@H](NC(=O)[C@H](C)NC(=O)[C@@H]1CSSC[C@H](NC(=O)[C@H](CCCCN)NC(=O)[C@@H](N)CCCCNC(=O)CC[C@H](NC(=O)CCCCCCCCCCCCCCCCC(=O)O)C(=O)O)C(=O)N[C@@H](CC(N)=O)C(=O)N[C@@H]([C@@H](C)O)C(=O)N[C@@H](C)C(=O)N[C@@H]([C@@H](C)O)C(=O)N1)[C@@H](C)O)C(C)C)C(=O)N[C@@H](CC(C)C)C(=O)N1CCC[C@H]1C(=O)N1CCC[C@H]1C(=O)N[C@H](C(=O)N[C@@H](CC(N)=O)C(=O)N[C@H](C(=O)NCC(=O)N[C@@H](CO)C(=O)NC(C)(C)C(=O)N[C@H](C(=O)N[C@@H](Cc1ccc(O)cc1)C(N)=O)[C@@H](C)O)C(C)C)[C@@H](C)O` [Peptide 82, K(γE-C18diacid)K[CNTATC]ATQRLANFLVHSS(Aib)NFGPILPPTNVGS(Aib)TY-amide] (H-K([γGlu-C18 diacid])KCNTATCATQRLANFLVHSS[Aib]NFGPILPPTNVGS[Aib]TY-NH2; disulfide 3-8): in assay [1], the “Ratio (selectivity hAMYR vs hCTR, ratio of EC50 values at the two receptors)” value stood at 8. Moreover, the figures for the EC50 in assay [1] and in assay [2] were 514 pM and 4280 pM, respectively.
The matching figures for `CC[C@H](C)[C@H](NC(=O)[C@@H]1CCCN1C(=O)CNC(=O)[C@H](Cc1ccccc1)NC(=O)[C@H](CC(N)=O)NC(=O)C(C)(C)NC(=O)[C@H](CO)NC(=O)[C@H](CO)NC(=O)[C@H](Cc1c[nH]cn1)NC(=O)[C@@H](NC(=O)[C@H](CC(C)C)NC(=O)[C@H](Cc1ccccc1)NC(=O)[C@H](CC(N)=O)NC(=O)[C@H](C)NC(=O)[C@H](CC(C)C)NC(=O)[C@H](CCCNC(=N)N)NC(=O)[C@H](CCC(N)=O)NC(=O)[C@@H](NC(=O)[C@H](C)NC(=O)[C@@H]1CSSC[C@H](NC(=O)[C@H](CCCCN)NC(=O)[C@@H](N)CCCCNC(=O)CC[C@H](NC(=O)CCCCCCCCCCCCCCCCC(=O)O)C(=O)O)C(=O)N[C@@H](CC(N)=O)C(=O)N[C@@H]([C@@H](C)O)C(=O)N[C@@H](C)C(=O)N[C@@H]([C@@H](C)O)C(=O)N1)[C@@H](C)O)C(C)C)C(=O)N[C@@H](CC(C)C)C(=O)N1CCC[C@H]1C(=O)N1CCC[C@H]1C(=O)N[C@H](C(=O)N[C@@H](CC(N)=O)C(=O)N[C@H](C(=O)NCC(=O)N[C@@H](CO)C(=O)N[C@@H](CC(N)=O)C(=O)NC(C)(C)C(=O)N[C@@H](Cc1ccc(O)cc1)C(N)=O)C(C)C)[C@@H](C)O` [Peptide 83, K(γE-C18diacid)K[CNTATC]ATQRLANFLVHSS(Aib)NFGPILPPTNVGSN(Aib)Y-amide] (H-K([γGlu-C18 diacid])KCNTATCATQRLANFLVHSS[Aib]NFGPILPPTNVGSN[Aib]Y-NH2; disulfide 3-8; N-terminus assumed): 11, 599 pM and 6340 pM.
With `CC[C@H](C)[C@H](NC(=O)[C@@H]1CCCN1C(=O)CNC(=O)[C@H](Cc1ccccc1)NC(=O)[C@H](CC(N)=O)NC(=O)C(C)(C)NC(=O)[C@H](CO)NC(=O)[C@H](CO)NC(=O)[C@H](Cc1c[nH]cn1)NC(=O)[C@@H](NC(=O)[C@H](CC(C)C)NC(=O)[C@H](Cc1ccccc1)NC(=O)[C@H](CC(N)=O)NC(=O)[C@H](C)NC(=O)[C@H](CC(C)C)NC(=O)[C@H](CCCNC(=N)N)NC(=O)[C@H](CCC(N)=O)NC(=O)[C@@H](NC(=O)[C@H](C)NC(=O)[C@@H]1CSSC[C@H](NC(=O)[C@H](CCCCN)NC(=O)[C@@H](N)CCCCNC(=O)CC[C@H](NC(=O)CCCCCCCCCCCCCCCCC(=O)O)C(=O)O)C(=O)N[C@@H](CC(N)=O)C(=O)N[C@@H]([C@@H](C)O)C(=O)N[C@@H](C)C(=O)N[C@@H]([C@@H](C)O)C(=O)N1)[C@@H](C)O)C(C)C)C(=O)N[C@@H](CC(C)C)C(=O)N1CCC[C@H]1C(=O)N1CCC[C@H]1C(=O)N[C@H](C(=O)N[C@@H](CC(N)=O)C(=O)N[C@H](C(=O)NCC(=O)NC(C)(C)C(=O)N[C@@H](CC(N)=O)C(=O)N[C@H](C(=O)N[C@@H](Cc1ccc(O)cc1)C(N)=O)[C@@H](C)O)C(C)C)[C@@H](C)O` [Peptide 84, K(γE-C18diacid)K[CNTATC]ATQRLANFLVHSS(Aib)NFGPILPPTNVG(Aib)NTY-amide] (H-K([γGlu-C18 diacid])KCNTATCATQRLANFLVHSS[Aib]NFGPILPPTNVG[Aib]NTY-NH2; disulfide 3-8; N-terminus assumed), in assay [1], the “Ratio (selectivity hAMYR vs hCTR, ratio of EC50 values at the two receptors)” value is recorded as 3 and the EC50 stood at 118 pM. Besides, the EC50 in assay [2] was found to be 401 pM.

The record behind these values is US20240067693A1, “POLYPEPTIDES AND USES THEREOF” (MEDIMMUNE LIMITED, priority 2020, published 2024).
